Reference: patent publication US12558354B2, “Tumor necrosis factor alpha (TNF-alpha) small molecule inhibitor” (AJOU UNIVERSITY INDUSTRY-ACADEMIC COOPERATION FOUNDATION, priority 2019, dated 2026)
Entries after “also recorded” stand apart in the source; their conditions may differ.

Tests used:
TNF-α/TNFR1 interface = TNF-α/TNFR1 interface (Homo sapiens, UniProt P01375); details: target TNF-α/TNFR1 interface, literature; cited from earlier work
[1] = system: human dermal fibroblasts (HDFs); assay: Cell viability (MTT) assay in human dermal fibroblasts; type: cell-based; details: HDFs, 24 hours
Method: FIG. 8A is a graph showing the effects of TIM1 and a solvent thereof, DMSO, on the viability of human dermal fibroblasts, in which cells (10^4/well) were treated with DMSO at 3 different concentrations (0.5, 1, and 2%) and TIM1 at 8 different concentrations (1, 3.125, 6.25, 12.5, 25, 50, 100, and 200 μM) for 24 hours, and the cell viability was monitored by an MTT assay. FIG. 8B is a graph showing the effect of TIM1 on the viability of a mouse fibrosarcoma cell line [L929 (1.5×10^4/well)] under the same conditions as in FIG. 8A. All experiments were independently performed 4 times, and mean±SEM of the independent experiments was calculated using a two-tailed paired Student's t-test (*P<0.05).
In order to measure cell viability, a colorimetric […] (MTT) assay (Sigma-Aldrich Co.) was performed. HDFs were seeded at a density of 10^4/well in 96-well plates (BD Biosciences, San Jose, CA, USA), grown overnight, and then treated with a test compound at various concentrations for 24 hours. The next day, the medium was replaced with a medium (100 μl/well) containing a 10% MTT solution, followed by incubated at 37° C. for 3 hours. This solution was replaced with DMSO (100 μl/well), and the plates were incubated at room temperature for 30 minutes. Thereafter, the plates were read at a wavelength of 540 nm using a microplate spectrophotometer system (Molecular Devices, Silicon Valley, California).

[2] = biological target: T1, recombinant human TNF-α (rhTNF-α) (Homo sapiens, UniProt P01375); assay: TNF-α-mediated hIL-8 secretion in HDFs (ELISA); type: cell-based; details: for inhibition of TNF-induced hIL-8, TIM1 derivatives compared with TIM1: HDFs, 1, 10 and 50 μM, rhTNF-α 1 ng/ml
T1 construct: purchased Miltenyi Biotec
Method: (§1) HDFs were seeded at a density of 10^4/well in a 96-well plate (BD Biosciences) and grown overnight. The cells were treated for 24 hours with a 1-hour-pre-incubated mixture of rhTNF-α and test compounds. IL-8 secretion was assessed by a human IL-8 uncoated ELISA kit (eBioscience, Inc., San Diego, CA, USA), and IL-6 secretion level was assessed by a human IL-6 ELISA MAX™ Deluxe kit (BioLegend, San Diego, CA, USA). The microtiter plates were then analyzed at an appropriate wavelength using a microplate spectrophotometer system (Molecular Devices, Silicon Valley, California).

[3] = biological target: T1, recombinant human TNF-α (rhTNF-α); assay: TNF-α-mediated hIL-6 secretion in HDFs (ELISA); type: cell-based
Method: as §1

[4] = biological target: T2, recombinant mouse TNF-α (rmTNF-α) (Mus musculus, UniProt P06804); assay: Cell death attenuation assay, act-D-sensitized L929 cells with rmTNF-α; type: cell-based; details: act-D-sensitized L929, rmTNF-α 1 ng/ml, 1-100 μM
T2 construct: purchased Miltenyi Biotec
T2 sequence (P06804 80-235 limits assumed): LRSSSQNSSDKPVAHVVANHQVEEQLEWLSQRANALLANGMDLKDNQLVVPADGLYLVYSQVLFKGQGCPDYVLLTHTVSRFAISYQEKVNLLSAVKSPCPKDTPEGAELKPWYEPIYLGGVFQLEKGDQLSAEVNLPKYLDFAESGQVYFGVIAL
Method: HDFs (10^4/well) and L929 cell lines (1.5×10^4/well) were seeded in 96-well plates and grown overnight under appropriate conditions. The next day, HDFs and L929 cells were pretreated with 1 μg/ml act-D and 0.1 μg/ml act-D, respectively, followed by incubated for 30 minutes. Thereafter, a 1-hour-preincubated mixture of 10 ng/ml rhTNFα with test compounds or 1 ng/ml rmTNFα with test compounds, was applied to HDFs and L929 cells, respectively. The cells were incubated for 24 hours post-treatment, and survival was measured by the MTT assay. Cell viability was calculated with reference to the no-treatment control group. The obtained values were normalized with respect to the act-D treatment group and then used to calculate death attenuation (%) rate using the following equation: […]

[5] = system: collagen-induced polyarthritis (CIA); assay: Mouse model of collagen-induced polyarthritis (CIA), oral TIM1c; type: in vivo
Text: FIG. 6B is a graph showing body weight, FIG. 6C is a graph showing a squeaking number (the value 0 indicating no sign of pain), FIG. 6D is a graph showing an increase in paw volume, FIG. 6E is a graph showing an arthritis index, that is, the severity of mouse limb arthritis. The number of arthritic limbs was quantified, and each limb was assigned a severity score of 0-4, the data representing the number of arthritic limbs per arthritic mouse and the mean severity score of arthritis in each limb, black arrows representing the start date of drug administration, NOR, n=4; CIA, n=4; TIM1c_2 mg/ml, n=4; TIM1c_20 mg/ml, n=5, values being represented as means±SEM. #p<0.05, ##p<0.01, ###p<0.001 vs. NOR group and p<0.05, **p<0.01, ***p<0.001 vs. CIA group (two-way ANOVA followed by Bonferroni correction).
Male DBA/1J mice (20-23 g) were purchased from Central Lab. Animal Inc. (Seoul, Korea). Animals were housed in a limited-access rodent facility with a maximum of 4 animals per polycarbonate cage, with free access to pelleted food and water. The temperature was maintained at 22-24° C. with a 12/12-hour light/dark cycle. Animals were acclimatized for at least 1 week prior to starting the experiment. The number of animals used per experiment or test and the potential suffering were minimized. All methods were approved by the Animal Care and Use Committee of Kyung-Hee University, Korea. All procedures were executed in accordance to the Guide for the Care and Use of Laboratory Animals by the Korea National Institute of Health.
Male DBA/1J mice (6-week-old) were subcutaneously injected with 50 μl of an emulsion containing 100 μg of chicken collagen type II (Sigma-Aldrich Co., St. Louis, MO, USA) dissolved in 25 μl of acetic acid and 25 μl of a complete Freund's adjuvant (Sigma-Aldrich Co.) at the base of the tail thereof, and the day of the first immunization was defined as day 0. On Day 14, the mice were injected with a booster of 50 μl of the emulsion having the same composition as the first immunization, except that an incomplete Freund's adjuvant was used. All mice were randomly divided into 4 experimental groups: non-treated normal group (NOR, n=4), collagen-injected and vehicle-treated arthritis control group (CIA, n=4), 2 mg/kg TIM1c-treated arthritis group (TIM1c 2 mg/ml, n=4), and 20 mg/kg TIM1c-treated arthritis group (TIM1c 20 mg/ml, n=5). The treatment groups were orally fed 2 or 20 mg/kg of TIM1c every 2 days from day 15 to day 60 after the first immunization.
In order to evaluate the progression of arthritis in CIA mice, four parameters (body weight, paw volume increase, squeaking score, and arthritis score) were measured after the first immunization with collagen and complete Freund's adjuvant. The body weights of the mice were measured using a digital balance (Mettler-Toledo Inc., Columbus, OH, USA). In order to assess nociception and hyperalgesia, ankle pain was evaluated on a scale measuring squeaking. Squeaking included any vocalization evoked by ankle flexion and extension. The flexion and extension procedures were repeated 10 times every 5 seconds, and the mouse was rated 0 (no vocalization) or 1 (vocalization) for each hindlimb thereof. The total number of vocalizations detected by the observer was counted as the number of squeaks. Paw swelling was measured by volume displacement of an electrolyte solution using a water-displacement plethysmometer (Ugo-Basil Biological Research Apparatus Co., Comerio-Varese, Italy), as previously described (Bang J. S. et al. (2009) Arthritis Res. Ther. 11(2):R49). The hindlimbs were immersed to the line of the hairy skin, and the volumes thereof were read on a digital display. The increase in paw volume was represented compared to day 0, which was defined as zero. […]

[6] = HDFs, 1, 10, 50 and 100 μM, 24 hours

T1 sequence (P01375 77-233 limits assumed): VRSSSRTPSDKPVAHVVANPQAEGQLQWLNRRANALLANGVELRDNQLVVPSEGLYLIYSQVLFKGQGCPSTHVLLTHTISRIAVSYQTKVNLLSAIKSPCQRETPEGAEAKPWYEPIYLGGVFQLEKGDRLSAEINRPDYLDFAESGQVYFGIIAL
Sequence of TNF-α/TNFR1 interface (P01375 77-233 limits assumed, species assumed): as the sequence (P01375 77-233 limits assumed) above

C=C1C(=O)O[C@@H]2C[C@@H](C)[C@]34C[C@]5(C(=O)O[C@H]6C[C@@]7(C)C(=C[C@H]65)[C@H](C)CC[C@@H]7O)[C@H](C(C)=C3C[C@@H]12)[C@@H]4OC(C)=O [Japonicone A]
IC50 (TNF-α/TNFR1 interface): ~10 µM

Cc1cc2occ(CN(C)CCN(C)Cc3cn(-c4cccc(C(F)(F)F)c4)c4ccccc34)c(=O)c2cc1C [SPD304, reference compound]
cytotoxicity (cell viability, MTT assay) [1]: showed cytotoxicity; also recorded: severe cytotoxicity at high concentrations; also recorded: strong cytotoxicity at concentrations exceeding 1 μM; also recorded: significant cytotoxic effects were exhibited at concentrations of 10, 50 or 100 μM | secretion of hIL-8 at 10 μM ([2]; HDFs, 10 μM): increase the secretion of cytokines | secretion of hIL-8 at 50 μM ([2]; HDFs, 50 μM): completely inhibits | inhibition of TNF-α-mediated hIL-8 secretion [2, 6]: weak at 10 μM but stronger at 1 μM | secretion of hIL-6 at 10 μM ([3]; HDFs, 10 μM): increase the secretion of cytokines | secretion of hIL-6 at 50 μM ([3]; HDFs, 50 μM): completely inhibited | inhibition of TNF-α-mediated hIL-6 secretion [3, 6]: weak at 10 μM but stronger at 1 μM | inhibition of rmTNF-α-mediated proapoptotic pathway / cell death [4]: did not reduce the death of these cells at concentrations other than 1 μM

CCCn1c(C)cc(-c2csc(NC(=O)c3nn(CC)c(=O)c4ccccc34)n2)c1C [TIM1-7, N-[4-(2,5-dimethyl-1-propylpyrrol-3-yl)-1,3-thiazol-2-yl]-3-ethyl-4-oxophthalazine-1-carboxamide]
cytotoxicity (cell viability, MTT assay) [1]: negligible cytotoxicity | inhibition of TNF-induced hIL-8, TIM1 derivatives compared with TIM1 ([2]; 24 hours): concentration-dependent inhibition of TNF-induced hIL-8 greater than that of TIM1

Cc1csc(N(C(=O)c2nn(C)c(=O)c3ccccc23)c2ccccc2)n1 [TIM1-10, 3-methyl-N-(4-methy1-1,3-thiazol-2-yl)-4-oxo-N-phenylphthalazine-1-carboxamide]
cytotoxicity (cell viability, MTT assay) [1]: negligible cytotoxicity | inhibition of TNF-induced hIL-8, TIM1 derivatives compared with TIM1 ([2]; 24 hours): concentration-dependent inhibition of TNF-induced hIL-8 greater than that of TIM1

Erythrosine B
IC50 (TNF-α/TNFR1 interface): 5 µM

Cc1cc(-c2csc(NC(=O)c3nn(C)c(=O)c4ccccc34)n2)c(C)n1CCc1ccccc1 [TIM1-14, N-{4-[2,5-dimethyl-1-(2-phenylethyl)pyrrol-3-yl]-1,3-thiazol-2-yl}-3-methyl-4-oxophthalazine-1-carboxamide]
cytotoxicity (cell viability, MTT assay) [1]: negligible cytotoxicity | inhibition of TNF-induced hIL-8, TIM1 derivatives compared with TIM1 ([2]; 24 hours): concentration-dependent inhibition of TNF-induced hIL-8 greater than that of TIM1

CCCCCCn1nc(C(=O)Nc2nc3ccccc3s2)c2ccccc2c1=O [TIM1-11, N-(1,3-benzothiazol-2-yl)-3-hexyl-4-oxophthalazine-1-carboxamide]
cytotoxicity (cell viability, MTT assay) [1]: negligible cytotoxicity | inhibition of TNF-induced hIL-8, TIM1 derivatives compared with TIM1 ([2]; 24 hours): concentration-dependent inhibition of TNF-induced hIL-8 greater than that of TIM1

CCCNc1nc(-c2cc(C)n(NC(=O)c3nn(C)c(=O)c4ccccc34)c2C)cs1.Cl [TIM1c, N-{2,5-dimethyl-3-[2-(propylamino)-1,3-thiazol-4-yl]pyrrol-l-yl}-3-methyl-4-oxophthalazine-1-carboxamide hydrochloride]
cytotoxicity (cell viability, MTT assay) [1]: negligible cytotoxicity | inhibition of TNF-induced hIL-8, TIM1 derivatives compared with TIM1 ([2]; 24 hours, hydrochloride): concentration-dependent inhibition of TNF-induced hIL-8 greater than that of TIM1; also recorded: maximally inhibited | disease severity at low dose ([5]; 2 mg/kg/2 days): slightly ameliorate disease severity | induction of RA at high dose ([5]; 20 mg/kg/2 days): significantly decreased to such an extent that the limbs of the animals were almost identical to those of the normal group | body weight ([5]; 2 or 20 mg/kg every 2 days): weight gain | paw volume ([5]; 2 or 20 mg/kg every 2 days): paw volume decrease | RA symptoms versus CIA mice ([5]; 2 or 20 mg/kg every 2 days, day 15 to day 60): Dose-dependent amelioration | number of squeaks ([5]; CIA mice): inhibited | arthritis index (clinical score) ([5]; treatment group versus CIA): significantly decreased

Cc1cc(-c2csc(N(C)C)n2)c(C)n1NC(=O)c1nn(C)c(=O)c2ccccc12 [TIM1d, N-{3-[2-(dimethylamino)-1,3-thiazol-4-yl]-2,5-dimethylpyrrol-1-yl}-3-methyl-4-oxophthalazine-1-carboxamide]
cytotoxicity (cell viability, MTT assay) [1]: negligible cytotoxicity | inhibition of TNF-induced hIL-8, TIM1 derivatives compared with TIM1 ([2]; 24 hours): concentration-dependent inhibition of TNF-induced hIL-8 greater than that of TIM1
